Six molecules from patent US4207326A, “Antimicrobial quaternary pyrazole derivatives” (Cilag-Chemie A.G., priority 1979, dated 1980) can be followed below.

The test system of assay [1] is P. aeruginosa. In words: Antibacterial activity: Minimum Inhibitory Concentration. The class given is cell-based, Pseudomonas aeruginosa ATCC 9027. The settings on record: Pseudomonas aeruginosa, read-out: Minimum Inhibitory Concentration. The protocol: (§1) The antimicrobial activity was determined by inoculation of the test microorganism into suitable growth media containing solutions of the compounds at concentrations of 100, 50, 10, 5, 1.0, 0.5 and 0.1 μg/ml. The reference antibiotics used were Gentamicin for the antibacterial tests and Amphotericin B for the antimycotic and antifungal tests. After incubation the antimicrobial activity was recorded as the Minimal Inhibitory Concentration (M.I.C.), i.e., the lowest concentration preventing macroscopically visible growth, for each test compound against each organism.
(§2) An initial solution of each formula (I) compound to be tested in sterile distilled water was prepared at a concentration of 1000 μg/ml. With appropriate dilutions using sterile distilled water, additional solutions were prepared at concentrations of 500, 100, 50, 10, 5 and 1 μg/ml.
(§3) They were cultured and maintained on Tryptone Soy Agar (Oxoid CM 131), with the addition of 10% horse blood for the S. pyogenes.
(§4) To prepare the organisms as inocula for the test, slopes of this medium were streaked with the organisms and incubated at 37° C. for 24 hours. 4.5 Ml volumes of Brian-Heart Infusion Broth (Oxoid CM 225) were then inoculated with a platinum loop from the agar slope cultures and incubated for 24 hours at 37° C. The final inocula were then prepared by adding 0.1 ml aliquots of the Brain-Heart Infusion Broth cultures to 100 ml volumes of sterile physiological saline.
(§5) (a) For the test on each of the bacterial strains and each of the test and reference compounds, a series of 8 tubes containing 4.5 ml volumes of Brain-Heart Infusion Broth (Oxoid CM 225) were prepared. To 7 of these were added 0.5 ml volumes of the final solutions of the test compouns, giving final concentrations in the broths of 100, 50, 10, 5, 1.0, 0.5 and 0.1 μg/ml. To the eighth tube in each series was added 0.5 ml of the solvent used and diluted as for the preparation of the 1000 μg/ml solution of the compound. This tube was used as the growth control. The tubes were inoculated with 0.02 ml aliquots of the inocula prepared in accordance with "(a) Bacteria" above, and incubated at 37° C. for 24 hours. The tubes were then examined for evidence of bacterial growth as shown by turbidity of the medium and the lowest concentration of the test compound which prevented bacterial growth was recorded as the Minimal Inhibitory Concentration. This test procedure was carried out on two separate days.

For assay [2], the system named is P. mirabilis. Described as above. The class given is cell-based, Proteus mirabilis NCTC 8559. The settings on record: Proteus mirabilis, read-out: Minimum Inhibitory Concentration. The procedure: as §1, §2, §3, §4, §5
Assay [3] relates to E. coli. The assay is described as above. In kind it is cell-based, Escherichia coli ATCC 8739. The conditions noted are these: Escherichia coli, 24 hours. The procedure:
as §1, §2, §3, §4, §5

Assay [4] has as its system A. corymbifera. The assay is described as follows: Antifungal activity: Minimum Inhibitory Concentration. In kind it is cell-based, Absidia corymbifera NCPF 2001. The conditions noted are these: for MIC: Lichtheimia corymbifera, read-out: Minimum Inhibitory Concentration. The procedure: as §1, §2
A. corymbifera NCPF 2001
(§6) The A. corymbifera, A. fumigatus, S. schenkii, T. rubrum, T. mentagrophytes, M. canis and P. verrucosa strains were all maintained on Sabouraud-Dextrose Agar (Oxoid CM 41) by incubating for 14 days at 27° C. To prepare the inocula 30 ml volumes of Sabouraud-Liquid medium (Oxoid CM 147) were inoculated from the agar cultures and incubated at 27° C. until heavy uniform growth resulted. The mycelial growth was then broken up by shaking with glass beads.
(§7) 1 Ml aliquots were removed from each of the cultures for the purpose of making viable counts and the cultures were then held at 4° C. The viable counts were made by preparing serial ten-fold dilutions of the cultures in sterile physiological saline and spreading on plates of Sabouraud-Dextrose Agar (Oxoid CM 41) which were then incubated at 27° C. for 14 days. When the viable counts had confirmed that each of the inocula contained approximately 10^6 colony forming units (C.F.U.) per ml the cultures were withdrawn from the refrigerator and used as the inocula for the tests.
(§8) (c) For the tests on each of the remaining seven strains and each of the test and reference compounds, a series of 8 tubes containing 4.5 ml volumes of Sabouraud-Liquid Medium (Oxoid CM 147) were prepared. To 7 of these were added 0.5 ml volumes of the final solutions of the test compounds, giving final concentrations in the broths of 100, 50, 10, 5, 1.0, 0.5 and 0.1 μg/ml. To the eighth tube in each series was added 0.5 ml of the solvent used and diluted as for the preparation of the 500 μg/ml solution of the compound. This tube was used as a growth control. The tubes were then inoculated with 0.1 ml aliquots of the inocula prepared as in "(b) Fungi" above. The tubes were then incubated at 27° C. with continuous shaking for a period of one week. The tubes were then examined for evidence of growth as shown by the presence of mycelial growth in the medium and the lowest concentration of the test compound which prevented fungal growth was recorded as the Minimal Inhibitory Concentration. This test procedure was carried out on two separate days.

For assay [5], the system named is T. mentagrophytes. Described as above. The conditions noted are these: T. mentagrophytes, 27° C., one week; for MIC: Trichophyton mentagrophytes, read-out: Minimum Inhibitory Concentration. In kind it is cell-based, Trichophyton mentagrophytes NCPF 410. The protocol: as §1, §2
T. mentagrophytes NCPF 410
as §6, §7, §8

In assay [6] the test system is M. canis. The description is as above. In kind it is cell-based, Microsporum canis NCPF 351. The conditions noted are these: M. canis, 27° C., one week; for MIC: Microsporum canis, read-out: Minimum Inhibitory Concentration. The procedure: as §1, §2, §6, §7, §8
Assay [7] has as its system T. rubrum. The assay is described as above. The class given is cell-based, Trichophyton rubrum NCPF 197. The conditions noted are these: T. rubrum, 27° C., one week; for MIC: Trichophyton rubrum, read-out: Minimum Inhibitory Concentration. The protocol: as §1, §2, §6, §7, §8
For assay [8], the system named is S. schenkii. The assay is described as above. The class given is cell-based, Sporotrichon schenkii NCPF 3182. The settings on record: for MIC: read-out: Minimum Inhibitory Concentration. The protocol:
as §1, §2, §6, §7, §8

Where [9] appears, read: P. aeruginosa, Day 1, 37° C., 24 hours.
Setting [10] is: P. aeruginosa, Day 2, 37° C., 24 hours.
[11] abbreviates: P. mirabilis, Day 1, 37° C., 24 hours.
The mark [12] stands for this setting: P. mirabilis, Day 2, 37° C., 24 hours.
Where [13] appears, read: A. corymbifera, Day 1, 27° C., one week.
Setting [14] is: A. corymbifera, Day 2, 27° C., one week.
Where [15] appears, read: S. schenkii, Day 1, 27° C., one week.
The mark [16] stands for this setting: S. schenkii, Day 2, 27° C., one week.

Like-named read-outs stand apart in the source and are kept apart here.

For the molecule `CCCCCCCCCCCCCCn1ccc[n+]1C` [Example 3-G, 2-methyl-1-tetradecyl-pyrazolium methosulfate], the MIC in assay [1] (setting [9]) stood at 10 µg/mL; in assay [1] (setting [10]), 10 µg/mL; in assay [2] (setting [11]), 50 µg/mL; in assay [2] (setting [12]), 50 µg/mL; in assay [3] (Day 1, 37° C.), 10 µg/mL; in assay [3] (Day 2, 37° C.), 10 µg/mL. Moreover, the MIC in assay [4] (setting [13]) is 10 µg/mL; in assay [4] (setting [14]), 10 µg/mL; in assay [5] (Day 1), 1 µg/mL; in assay [5] (Day 2), 5 µg/mL; in assay [6] (Day 1), 10 µg/mL; in assay [6] (Day 2), 5 µg/mL. Moreover, the MIC in assay [7] (Day 1) was determined as 1 µg/mL; in assay [7] (Day 2), 5 µg/mL; in assay [8] (setting [15]) it was 5 µg/mL; in assay [8] (setting [16]) it was 10 µg/mL.

For `CCCCCCCCCCCC[n+]1c(C)cc(C)n1Cc1ccc(Cl)cc1Cl.[Br-]` [Example 6-B, 2-(2,4-dichlorobenzyl)-3,5-dimethyl-1-dodecyl-pyrazolium bromide], the MIC was 10 µg/mL in assay [1] (setting [9]); 10 µg/mL in assay [1] (setting [10]); 50 µg/mL in assay [2] (setting [11]); 50 µg/mL in assay [2] (setting [12]); 10 µg/mL in assay [3] (Day 1, 37° C.); 5 µg/mL in assay [3] (Day 2, 37° C.). Besides, the MIC came out at 10 µg/mL in assay [4] (setting [13]); 10 µg/mL in assay [4] (setting [14]); 1 µg/mL in assay [5] (Day 1); 1 µg/mL in assay [5] (Day 2); 5 µg/mL in assay [6] (Day 1); 5 µg/mL in assay [6] (Day 2). The MIC in assay [7] (Day 1) is 5 µg/mL; in assay [7] (Day 2) it was 1 µg/mL; in assay [8] (setting [15]) it was 1 µg/mL; in assay [8] (setting [16]), 1 µg/mL.

As to `CCCCCCCCCCCCCCCC[n+]1c(C)cc(C)n1C.Cc1ccc(S(=O)(=O)[O-])cc1` [Example 6-C, 1-hexadecyl-2,3,5-trimethylpyrazolium p-toluene sulfonate], the MIC in assay [1] (24 h) was determined as 5 µg/mL; in assay [1], 10 µg/mL; in assay [2] it was 50 µg/mL; in assay [3] (Day 1, 37° C.), 10 µg/mL; in assay [3] (Day 2, 37° C.), 10 µg/mL; in assay [4], 10 µg/mL. In addition, in assay [8], the MIC came out at 5 µg/mL. The “Minimum Inhibitory Concentration” value in assay [4] (setting [14]) amounted to 10 µg/mL; in assay [5] (Day 1) it was 5 µg/mL; in assay [6] (Day 2), 5 µg/mL; in assay [7] (Day 2), 5 µg/mL; in assay [8] (setting [16]), 5 µg/mL.

`CCCCCCCCCCCCCC[n+]1c(C)cc(C)n1Cc1ccc([N+](=O)[O-])cc1.[Br-]` [Example 6-D, 3,5-dimethyl-2(4-nitrobenzyl)-1-tetradecyl-pyrazolium bromide]: the MIC was determined as 100 µg/mL in assay [1] (setting [9]); 50 µg/mL in assay [1] (setting [10]); 50 µg/mL in assay [2] (setting [11]); 50 µg/mL in assay [2] (setting [12]); 50 µg/mL in assay [3] (Day 1, 37° C.); 100 µg/mL in assay [3] (Day 2, 37° C.). Also, the MIC in assay [4] (setting [13]) was 50 µg/mL; in assay [4] (setting [14]), 50 µg/mL; in assay [5] (Day 1) it was 10 µg/mL; in assay [5] (Day 2), 10 µg/mL; in assay [6] (Day 1) it was 10 µg/mL; in assay [6] (Day 2), 5 µg/mL. In addition, the MIC in assay [7] (Day 1) came to 10 µg/mL; in assay [7] (Day 2), 10 µg/mL; in assay [8] (setting [15]) it was 5 µg/mL; in assay [8] (setting [16]) it was 5 µg/mL.

In the case of `CCCCCCCCCCCC[n+]1c(C)cc(C)n1Cc1ccc(Cl)cc1.[Br-]` [Example 6-E, 2-(p-chlorobenzyl)-3,5-dimethyl-1-dodecyl-pyrazolium bromide], the MIC in assay [1] (setting [9]) turned out to be 5 µg/mL; in assay [1] (setting [10]), 5 µg/mL; in assay [2] (setting [11]), 50 µg/mL; in assay [2] (setting [12]), 50 µg/mL; in assay [3] (Day 1, 37° C.) it was 10 µg/mL; in assay [3] (Day 2, 37° C.), 10 µg/mL. The MIC in assay [4] (setting [13]) was 10 µg/mL; in assay [4] (setting [14]) it was 50 µg/mL; in assay [5] (Day 1), 5 µg/mL; in assay [5] (Day 2), 5 µg/mL; in assay [6] (Day 1) it was 1 µg/mL; in assay [6] (Day 2) it was 5 µg/mL. Also, the MIC in assay [7] (Day 1) worked out at 5 µg/mL; in assay [7] (Day 2), 5 µg/mL; in assay [8] (setting [15]) it was 5 µg/mL; in assay [8] (setting [16]) it was 1 µg/mL.

Turning to `C=CCn1c(C)cc(C)[n+]1CCCCCCCCCCCCCCCC.[Br-]` [Example 7, 2-allyl-3,5-dimethyl-1-hexadecyl-pyrazoliumbromide], the MIC in assay [1] (setting [9]) turned out to be 50 µg/mL; in assay [1] (setting [10]), 10 µg/mL; in assay [2] (setting [11]), 10 µg/mL; in assay [2] (setting [12]), 50 µg/mL; in assay [3] (Day 1, 37° C.), 10 µg/mL; in assay [3] (Day 2, 37° C.), 5 µg/mL. Moreover, the MIC turned out to be 5 µg/mL in assay [4] (setting [13]); 5 µg/mL in assay [4] (setting [14]); 1 µg/mL in assay [5] (Day 1); 5 µg/mL in assay [5] (Day 2); 5 µg/mL in assay [6] (Day 1); 10 µg/mL in assay [6] (Day 2). Also, the MIC came out at 1 µg/mL in assay [7] (Day 1), 1 µg/mL in assay [7] (Day 2), 5 µg/mL in assay [8] (setting [15]) and 5 µg/mL in assay [8] (setting [16]).
